Laboratory results taken from patent US12109284B2, “Compositions comprising fluoride and calcium and method for preparing them” (DENTHERAPY LTD, priority 2016, dated 2024).

Experiments:
[1] = cited from earlier work; for Buffer range: pH
[2] = Microindentation cycling re-mineralisation model (Example 4); parameters: species or system human
Description: Citric acid eroded human enamel specimens were placed into a cycling re-mineralisation model where they were cycled between a treatment, artificial saliva and citric acid five times a day over five days. Three different treatments were tested and were: 1. 2% OPN formulation containing 500 ppm fluoride. 2. 500 ppm fluoride solution. 3. Deionised water. At the end of each of the five days the micro hardness of the enamel was measured by Vickers microindentation to determine the extent of the re-mineralisation of the enamel lesions.
The microhardness of the enamel was determined by indentation using a Vickers diamond-tip indenter. Each hardness value was determined from the average of ten individual measurements made centrally on each enamel specimen using 1.9N force over an indent time of 20 seconds. At the start of each set of measurements a calibration check was performed using a standard metal block to ensure the reproducibility of microhardness was within 3% of the test block micro hardness.

Molecule	pKa [1]	Buffer range [1]	Trend in remineralisation (microhardness ranking) ([2]; Day 1)	Trend in remineralisation (microhardness ranking) ([2]; Day 2)	Trend in remineralisation (microhardness ranking) ([2]; Day 3)	Trend in remineralisation (microhardness ranking) ([2]; Day 4 (probability 0.06))	Trend in remineralisation (microhardness ranking) ([2]; Day 5)	Increase in hardness of eroded enamel compared to deionised water ([2]; all time points)
tris(hydroxymethyl)aminomethane	8.97	7.5-9.5	–	–	–	–	–	–
[F-].[Na+] [NaF, sodium fluoride]	–	–	OPN = NaF > DI water	OPN = NaF > DI water	NaF = OPN > DI water	OPN = NaF > DI water	OPN > NaF > DI water	statistically superior to deionised water
O=C([O-])O.[Na+] [sodium bicarbonate]	–	5.1-8.0	–	–	–	–	–	–
